Assay results from publication PMC12362615, “Design, Synthesis, and Cellular Characterization of a New Class of IPMK Kinase Inhibitors” (Journal of Medicinal Chemistry, 2025).
“And” between values parts separate entries of the source, which are not always exact repeats. Equal values may be shown once. Read-outs that look alike come from different tables or passages of the source.

Columns and labels:
[1] = target: T1, purified recombinant human IPMK kinase domain (Homo sapiens, UniProt Q8NFU5); test: IPMK IC50 determination, Kinase-Glo assay; format: biochemical
T1 sequence (Q8NFU5 with tags, fused parts or gaps): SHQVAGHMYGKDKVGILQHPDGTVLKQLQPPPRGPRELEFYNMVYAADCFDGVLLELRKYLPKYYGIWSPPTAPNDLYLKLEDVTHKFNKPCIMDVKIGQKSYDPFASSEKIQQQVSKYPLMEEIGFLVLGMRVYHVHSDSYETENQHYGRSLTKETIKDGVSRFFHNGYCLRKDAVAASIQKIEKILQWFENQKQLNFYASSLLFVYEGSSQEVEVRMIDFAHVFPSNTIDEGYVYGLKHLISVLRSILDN
Excerpt: (§1) These assay conditions were optimized with respect to reaction time, IPMK enzyme concentration, and IP3 concentration to determine the IC50 values for these ATP-competitive compounds.

[2] = system: purified recombinant human IPMK kinase domain; test: IPMK IC50 determination, Kinase-Glo assay; format: biochemical; details: for decrease of inhibitory activity toward IPMK compared to 1: compared to compound 1
Excerpt: as §1

[3] = target: T2, purified recombinant human IP6K2 kinase domain (Homo sapiens, UniProt Q9UHH9); test: IP6K2 IC50 determination, malachite green Pi release assay; format: biochemical; details: for IP6K2/IPMK: Table S1, ratio of IC50 values; for IC50: supplementary csv
T2 sequence (Q9UHH9 1-426): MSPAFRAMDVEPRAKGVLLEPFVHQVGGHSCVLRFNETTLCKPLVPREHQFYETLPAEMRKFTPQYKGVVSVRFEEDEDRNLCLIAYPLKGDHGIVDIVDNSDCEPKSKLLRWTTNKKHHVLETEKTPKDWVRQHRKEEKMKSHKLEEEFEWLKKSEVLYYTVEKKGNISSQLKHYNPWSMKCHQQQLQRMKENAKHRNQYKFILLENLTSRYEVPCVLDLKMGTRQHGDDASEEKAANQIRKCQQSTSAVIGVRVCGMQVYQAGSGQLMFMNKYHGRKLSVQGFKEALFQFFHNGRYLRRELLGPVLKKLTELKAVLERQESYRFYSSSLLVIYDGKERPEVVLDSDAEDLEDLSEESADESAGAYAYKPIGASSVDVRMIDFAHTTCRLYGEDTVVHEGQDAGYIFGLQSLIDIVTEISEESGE
Experimental: IP6K2 IC50 values were determined using the purified recombinant human IP6K2 kinase domain expressed in a 384-well clear polystyrene plate (VWR 82051-264). This human IP6K2 kinase domain (100 nM) was used at 37 °C in 50 μL reaction mixtures containing 5.0 μM human Dipp1, 50 mM Tris (pH 6.9), 10 mM MgCl2, 0.02% Triton X-100, 25 μM InsP6, and 50 μM ATP for 30 min. Pi release was determined with a malachite green colorimetric assay. Reactions were quenched by the addition of 12.5 μL of phosphate detection reagent (MAK3071KT, Sigma-Aldrich). Pi release was quantified from the absorbance at 620 nm by using appropriate standards.

[4] = system: human U251-MG glioblastoma cells; test: CyQuant cell count / proliferation assay; format: cell-based; details: 400 nM, 48 h, vs DMSO
Experimental: 1 Compound 1 inhibits human U251 glioblastoma cell growth and labeled inositol phosphate levels. (A) Schematic of inositol phosphate metabolism. (B) Chemical structure of compound 1, indicating moiety A (blue highlight), the core (gray highlight), and moiety B (red highlight), and the IC50 value as determined by the kinase-GLO assay. (C) CyQuant cell count assay of 10,000 human U251-MG glioblastoma cells seeded per well, treated for 48 h with DMSO vehicle or 400 nM compound 1 (n = 8, ***p = 0.0046, unpaired t test). (D) HPLC analysis of ^3H-inositol phosphates from U251-MG cells treated with 400 nM compound 1 (red bars) or DMSO (blue bars) and metabolically labeled with ^3H-inositol for 48 h, expressed as the percentage of the inositol peak from the HPLC for InsP3, InsP4, InsP5, and InsP6, as indicated, *p < 0.05 by unpaired t test Bonferroni corrected for multiple comparisons. (E) Same data as in (D) replotted with a nonzero y-axis to facilitate visualizing differences between DMSO vs. compound treatment for each indicated inositol phosphate species, *p < 0.05 by unpaired t test Bonferroni corrected for multiple comparisons.
Error represents the standard error from 3 independent assays. (B) CyQuant cellular proliferation assay of 10,000 human U251-MG glioblastoma cells seeded per well, treated for 48 h with DMSO vehicle or 10 μM 14 (n = 8, ****p adj < 0.0001 by one-way ANOVA, Dunnett’s corrected; *p < 0.05 by unpaired t test). (C) HPLC analysis of ^3H-inositol phosphates from U251-MG cells treated with 10 μM compound 14 (red bars) or DMSO (blue bars) and metabolically labeled with ^3H-inositol for 48 h, expressed as a percentage of all the peaks detectable from the HPLC, *p < 0.05, **p < 0.01, ***p < 0.001 by unpaired t test compared to DMSO-treated control for all remaining panels, n = 3. (D) Same as (C) but expressed as a percentage of the inositol HPLC peak, n = 3. (E) Same as C but expressed as a percentage of all the inositol phosphate peaks combined from the HPLC, n = 3.

[5] = system: inositol phosphate levels in U251-MG cells; test: 3H-inositol metabolic labeling and HPLC of inositol phosphates; format: cell-based, human; details: 400 nM, 48 h, vs DMSO
Experimental: Human U251-MG glioblastoma cells (ECACC 09063001) were grown in DMEM supplemented with 10% FBS. The medium was changed to inositol-free DMEM, and cells were inositol-starved for 1–3 days. Cells were maintained in inositol-free DMEM medium, treated with the indicated inhibitor or DMSO for 1–2.5 h, and supplemented with 100 μCi ^3H-inositol (PerkinElmer) for 48 or 72 h, as indicated on each figure. Cells were then washed in PBS and lysed in 200 μL HCl (0.5 M), 250 μL of MeOH was added to each well of a 6-well plate (approximately 10^6 cells), followed by 125 μL of 2 M KCl. Lysates were scraped and sonicated on ice for three 1 min cycles. Inositol phosphate (IP) extracts were cleaned of lipids by adding 250 μL of CHCl3, vortexing and centrifuging samples for 2 min at 5000 rpm to separate upper aqueous and lower organic phases, upper phase contains soluble IPs. This extraction was repeated once. Samples were dried in a SpeedVac, resuspended in 10 mM ammonium phosphate (pH= 3.5), and filtered. HPLC separation and detection of the inositol species on the upper phase used a Partisphere SAX 4.6 mm × 250 mm column, eluted with 10 mM (buffer A) to 1.3 M (buffer B) ammonium phosphate (pH = 3.8) and online flow scintillation analyzer (FSA, PerkinElmer). Elution of [^32P]-labeled IP4, IP5, and IP6 standards confirmed the identity of each peak off the HPLC. Quantification represents three biologically independent metabolic labeling samples with error representing the standard deviation of the mean.

Solubility = format: physicochemical
[6] = Pharmacokinetic studies in mice; format: in vivo, male CD1 mice; details: IV, 3 mg/kg; for AUC(0-t) / Cmax / clearance / half-life / Vd: male, CD1, mouse, plasma; for Vd: read-out: Vss
Experimental: All the procedures related to animal handling, care, and treatment in this study were performed according to guidelines approved by the Institutional Animal Care and Use Committee (IACUC) of Pharmaron (PK-R-06012023 and PK-M-07182023), following the guidance of the Association for Assessment and Accreditation of Laboratory Animal Care (AAALAC). A group of 3 male CD1 mice (2 for exploratory PK) were dosed intravenously (IV) or intraperitoneally (IP) with a solution formulation of the tested compounds in 10% NMP, 5% Solutol in normal saline (v/v/v, 10:5:85). From each mouse, blood samples ([…]) were collected from the orbital vein such that samples were obtained at 0.083, 0.25, 0.5, 1, 2, 4, 8, and 24 h post dose. At each time point, blood samples were collected from three mice in labeled microcentrifuge tubes containing EDTA-K2 as an anticoagulant. Plasma samples were separated by centrifugation of whole blood and stored at −75 ± 15 °C until bioanalysis. All samples were processed for analysis by precipitation using acetonitrile (ACN) and analyzed with a fit-for-purpose LC/MS/MS method (the below quantifiable limit (BLOQ) was 5.0 ng/mL). Pharmacokinetic parameters were calculated by a noncompartmental analysis model using WinNonlin 8.3.

[7] = supplementary csv, read-out: IPMK IC50
[8] = Kinase-Glo assay, 12.5 μM Ins(1,4,5)P3, 10 μM ATP, read-out: IC50 toward recombinant human IPMK

| SMILES | IC50 [1, 7] | IP6K2/IPMK [3] | IC50 [3] | IC50 [1, 8] | AUC(0-t) [6] | Cmax [6] | clearance [6] | half-life [6] | Vd [6] | further results |
| --- | --- | --- | --- | --- | --- | --- | --- | --- | --- | --- |
| Cc1cc(C)cc(-c2onc3ccc([C@H]4C[C@@H]4C(=O)O)cc23)c1 (racemic) [Compound 2, (±)-trans-2-(3-(3,5-Dimethylphenyl)benzo[c]isoxazol-5-yl)cyclopropane-1-carboxylic acid] | 166 ± 19.6 nM | 1.6 | 265 ± 20 nM |  |  |  |  |  |  | decrease of inhibitory activity toward IPMK compared to 1 [2]: 6 fold |
| Cc1cc(C)cc(-c2onc3ccc(/C=C/C(=O)O)cc23)c1 [Compound 1, (E)-3-(3-(3,5-Dimethylphenyl)benzo[c]isoxazol-5-yl)acrylic Acid] |  | 9.5 | 248 ± 119 nM | 26 nM and 26.2 nM |  |  |  |  |  | cell number, CyQuant DNA content assay [4]: significant decrease in cell number; accumulation of InsP4 [5]: significantly decreased; accumulation of InsP5 [5]: significantly decreased; accumulation of InsP6 [5]: significantly decreased |
| Cc1cc(C)cc(-c2onc3ccc(C(=O)O)cc23)c1 [Compound 3] | 215 ± 37.5 nM |  |  |  |  |  |  |  |  | decrease of inhibitory activity toward IPMK compared to 1 [2]: 8 fold |
| Cc1cc(C)cc(-c2onc3ccc(-c4nnn[nH]4)cc23)c1 [Compound 4, 3-(3,5-Dimethylphenyl)-5-(1H-tetrazol-5-yl)benzo[c]isoxazole] | 24.7 ± 1.6 nM | 4.6 | 113 ± 69.5 nM | 25 ± 1.6 nM |  |  |  |  |  | solubility compared to compound 3 (Solubility): improved; improved potency toward IPMK compared to compound 3 ([2]; compared to compound 3): 9 fold |
| O=C(Nc1ccc(-c2onc3ccc(-c4nnn[nH]4)cc23)cc1)C1CC1 [Compound 10, N-(4-(5-(1H-Tetrazol-5-yl)benzo[c]isoxazol-3-yl)phenyl)cyclopropanecarboxamide] | 58.2 ± 3.4 nM | 5.1 | 297 ± 141 nM | 58 ± 3.4 nM |  |  |  |  |  |  |
| c1cc(OC2CCNCC2)cc(-c2onc3ccc(-c4nnn[nH]4)cc23)c1 [Compound 12, 3-(3-(Piperidin-4-yloxy)phenyl)-5-(1H-tetrazol-5-yl)benzo[c]isoxazole] | 31.3 ± 4 nM | 4.9 | 153 ± 79.8 nM | 31 ± 4 nM | 10.8 µM·h | 44 µM | 11.8 mL/min/kg | 1.29 h | 0.23 L/kg |  |
| Clc1cnc(Oc2cccc(-c3onc4ccc(-c5nnn[nH]5)cc34)c2)c(Cl)c1 [Compound 13, 3-(3-((3,5-Dichloropyridin-2-yl)oxy)phenyl)-5-(1H-tetrazol-5-yl)benzo[c]isoxazole] | 72.1 ± 5.2 nM | 1.8 | 129 ± 44.1 nM |  | 7.7 µM·h | 50.5 µM | 15.5 mL/min/kg | 2.01 h | 0.27 L/kg | Vss (L/kg) [6]: increased |

Now from value to molecule, other results behind:

| IC50 [1, 7] | IP6K2/IPMK [3] | IC50 [3] | IC50 [1, 8] | AUC(0-t) [6] | Cmax [6] | clearance [6] | half-life [6] | Vd [6] | SMILES | further results |
| --- | --- | --- | --- | --- | --- | --- | --- | --- | --- | --- |
| 36 ± 5.5 nM | 3.5 | 125 ± 66.2 nM |  |  |  |  |  |  | c1ccc(-c2onc3ccc(-c4nnn[nH]4)cc23)cc1 [Compound 6, 3-Phenyl-5-(1H-tetrazol-5-yl)benzo[c]isoxazole] |  |
| 18.6 ± 1.4 nM | 7.8 | 146 ± 97.1 nM | 19 ± 1.4 nM |  |  |  |  |  | FC(F)(F)c1ccc(-c2onc3ccc(-c4nnn[nH]4)cc23)cc1 [Compound 7, 5-(1H-Tetrazol-5-yl)-3-(4-(trifluoromethyl)phenyl)benzo[c]isoxazole] |  |
| 18.3 ± 1.6 nM | 5.0 | 91.7 ± 50.9 nM | 18 ± 1.6 nM | 46.9 µM·h | 33 µM | 3.15 mL/min/kg | 0.92 h | 0.26 L/kg | FC(F)(F)Oc1ccc(-c2onc3ccc(-c4nnn[nH]4)cc23)cc1 [Compound 8, 5-(1H-Tetrazol-5-yl)-3-(4-(trifluoromethoxy)phenyl)benzo[c]isoxazole] |  |
| 185 ± 15.5 nM | 5.1 | 942 ± 348 nM |  |  |  |  |  |  | c1ccc(Oc2ccc(-c3onc4ccc(-c5nnn[nH]5)cc34)cc2)cc1 [Compound 9, 3-(4-Phenoxyphenyl)-5-(1H-tetrazol-5-yl)benzo[c]isoxazole] |  |
| 30.2 ± 1.7 nM | 3.5 | 107 ± 64.4 nM | 30 ± 1.7 nM | 19.4 µM·h | 66.6 µM | 7.52 mL/min/kg | 1.09 h | 0.21 L/kg | O=C(Nc1cccc(-c2onc3ccc(-c4nnn[nH]4)cc23)c1)C1CC1 [Compound 11, N-(3-(5-(1H-Tetrazol-5-yl)benzo[c]isoxazol-3-yl)phenyl)cyclopropanecarboxamide] |  |
